What was measured:
[1] = molecular target: T1, Tyrosine-protein phosphatase non-receptor type 2 (Homo sapiens, UniProt P17706); test: Inhibition of TCPTP
T1 sequence (P17706 whole entry): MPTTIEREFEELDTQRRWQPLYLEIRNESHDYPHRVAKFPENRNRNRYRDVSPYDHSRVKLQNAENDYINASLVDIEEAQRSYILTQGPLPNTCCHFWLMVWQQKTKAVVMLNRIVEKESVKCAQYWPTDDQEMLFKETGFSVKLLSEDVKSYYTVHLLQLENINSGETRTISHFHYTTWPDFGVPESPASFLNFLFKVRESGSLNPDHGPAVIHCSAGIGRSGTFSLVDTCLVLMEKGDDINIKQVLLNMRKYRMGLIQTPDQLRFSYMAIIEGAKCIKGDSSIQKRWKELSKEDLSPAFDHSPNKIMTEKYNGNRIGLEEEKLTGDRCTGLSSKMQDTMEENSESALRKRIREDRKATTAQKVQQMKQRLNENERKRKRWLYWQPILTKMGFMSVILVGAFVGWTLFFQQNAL

[2] = molecular target: T2, Low molecular weight phosphotyrosine protein phosphatase (Homo sapiens, UniProt P24666); test: Inhibition of HCPTPA
T2 sequence (P24666 whole entry): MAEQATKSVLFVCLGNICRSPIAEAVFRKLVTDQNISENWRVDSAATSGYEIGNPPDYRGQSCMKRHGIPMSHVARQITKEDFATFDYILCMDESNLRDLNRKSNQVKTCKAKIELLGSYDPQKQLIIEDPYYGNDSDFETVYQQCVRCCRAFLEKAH

[3] = molecular target: Receptor-type tyrosine-protein phosphatase beta (Homo sapiens, UniProt P23467); test: Inhibition of HPTP beta
Receptor-type tyrosine-protein phosphatase beta, sequence (P23467 whole entry): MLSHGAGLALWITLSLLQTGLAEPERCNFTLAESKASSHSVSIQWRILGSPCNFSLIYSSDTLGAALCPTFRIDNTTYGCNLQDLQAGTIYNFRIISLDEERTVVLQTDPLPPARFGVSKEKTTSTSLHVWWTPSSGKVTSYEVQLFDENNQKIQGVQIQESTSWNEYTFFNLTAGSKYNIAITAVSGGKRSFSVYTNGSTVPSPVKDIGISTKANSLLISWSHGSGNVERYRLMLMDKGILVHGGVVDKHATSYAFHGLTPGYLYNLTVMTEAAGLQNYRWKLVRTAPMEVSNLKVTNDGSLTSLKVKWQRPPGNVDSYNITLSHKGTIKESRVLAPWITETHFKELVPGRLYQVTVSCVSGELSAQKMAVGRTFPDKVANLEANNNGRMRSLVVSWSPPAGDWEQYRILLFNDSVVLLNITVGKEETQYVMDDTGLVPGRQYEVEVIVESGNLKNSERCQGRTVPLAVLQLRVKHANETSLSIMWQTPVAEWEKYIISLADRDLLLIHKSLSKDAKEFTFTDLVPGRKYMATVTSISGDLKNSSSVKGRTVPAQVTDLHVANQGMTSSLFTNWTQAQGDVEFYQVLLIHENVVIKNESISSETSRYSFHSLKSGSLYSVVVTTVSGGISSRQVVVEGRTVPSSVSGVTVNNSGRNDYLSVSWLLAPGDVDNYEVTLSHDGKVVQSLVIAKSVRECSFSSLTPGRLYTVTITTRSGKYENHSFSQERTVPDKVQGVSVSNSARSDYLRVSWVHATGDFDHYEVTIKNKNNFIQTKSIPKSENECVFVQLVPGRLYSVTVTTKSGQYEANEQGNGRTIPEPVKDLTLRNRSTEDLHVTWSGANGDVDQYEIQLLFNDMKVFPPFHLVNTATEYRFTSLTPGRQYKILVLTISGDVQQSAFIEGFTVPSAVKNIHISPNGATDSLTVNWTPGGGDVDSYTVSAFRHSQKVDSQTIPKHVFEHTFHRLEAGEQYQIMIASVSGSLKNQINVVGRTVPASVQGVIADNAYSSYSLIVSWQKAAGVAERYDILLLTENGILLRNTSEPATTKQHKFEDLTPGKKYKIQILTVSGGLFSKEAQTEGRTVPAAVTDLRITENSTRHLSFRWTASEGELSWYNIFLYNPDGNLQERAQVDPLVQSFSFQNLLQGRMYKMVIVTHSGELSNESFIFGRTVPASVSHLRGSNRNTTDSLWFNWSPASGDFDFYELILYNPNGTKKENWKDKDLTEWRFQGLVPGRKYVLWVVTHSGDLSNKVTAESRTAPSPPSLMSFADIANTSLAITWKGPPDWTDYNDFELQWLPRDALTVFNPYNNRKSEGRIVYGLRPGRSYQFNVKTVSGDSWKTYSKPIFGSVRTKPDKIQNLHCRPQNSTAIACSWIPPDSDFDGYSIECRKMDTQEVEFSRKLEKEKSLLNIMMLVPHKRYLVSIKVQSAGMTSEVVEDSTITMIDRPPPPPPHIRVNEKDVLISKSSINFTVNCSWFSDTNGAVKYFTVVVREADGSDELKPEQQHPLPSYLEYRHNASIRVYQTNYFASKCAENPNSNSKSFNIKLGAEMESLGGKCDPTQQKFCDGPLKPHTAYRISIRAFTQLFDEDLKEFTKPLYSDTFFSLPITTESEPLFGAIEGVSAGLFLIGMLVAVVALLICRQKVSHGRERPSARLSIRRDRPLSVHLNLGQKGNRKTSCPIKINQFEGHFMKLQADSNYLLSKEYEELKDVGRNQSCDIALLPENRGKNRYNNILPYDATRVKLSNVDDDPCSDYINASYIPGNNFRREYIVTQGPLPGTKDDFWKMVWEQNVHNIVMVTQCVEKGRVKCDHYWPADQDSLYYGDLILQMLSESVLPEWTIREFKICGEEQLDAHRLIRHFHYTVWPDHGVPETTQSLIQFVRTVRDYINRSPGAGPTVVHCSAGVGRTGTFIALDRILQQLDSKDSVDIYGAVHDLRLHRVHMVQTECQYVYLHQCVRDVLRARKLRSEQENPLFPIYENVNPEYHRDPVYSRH

[4] = molecular target: Tyrosine-protein phosphatase non-receptor type 6 (Homo sapiens, UniProt P29350); test: Inhibition of SHP1
Tyrosine-protein phosphatase non-receptor type 6, sequence (P29350 whole entry): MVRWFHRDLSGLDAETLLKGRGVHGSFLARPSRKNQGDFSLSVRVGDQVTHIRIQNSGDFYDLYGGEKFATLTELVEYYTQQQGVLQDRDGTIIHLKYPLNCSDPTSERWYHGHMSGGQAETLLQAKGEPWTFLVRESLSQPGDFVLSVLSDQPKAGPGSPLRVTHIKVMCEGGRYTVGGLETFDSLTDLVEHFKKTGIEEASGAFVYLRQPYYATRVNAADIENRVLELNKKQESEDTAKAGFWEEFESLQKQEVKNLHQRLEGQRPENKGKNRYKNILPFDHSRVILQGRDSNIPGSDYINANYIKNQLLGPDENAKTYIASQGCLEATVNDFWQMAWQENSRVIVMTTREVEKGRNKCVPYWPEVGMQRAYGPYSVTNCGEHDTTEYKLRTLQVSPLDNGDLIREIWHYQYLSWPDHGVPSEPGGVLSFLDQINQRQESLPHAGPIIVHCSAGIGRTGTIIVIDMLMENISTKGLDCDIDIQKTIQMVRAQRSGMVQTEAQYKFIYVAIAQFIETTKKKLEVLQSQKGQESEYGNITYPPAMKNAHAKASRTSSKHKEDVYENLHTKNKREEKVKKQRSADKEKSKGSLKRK

[5] = molecular target: T3, Tyrosine-protein phosphatase non-receptor type 11 (Homo sapiens, UniProt Q06124); test: Inhibition of SHP2
T3 sequence (Q06124 whole entry): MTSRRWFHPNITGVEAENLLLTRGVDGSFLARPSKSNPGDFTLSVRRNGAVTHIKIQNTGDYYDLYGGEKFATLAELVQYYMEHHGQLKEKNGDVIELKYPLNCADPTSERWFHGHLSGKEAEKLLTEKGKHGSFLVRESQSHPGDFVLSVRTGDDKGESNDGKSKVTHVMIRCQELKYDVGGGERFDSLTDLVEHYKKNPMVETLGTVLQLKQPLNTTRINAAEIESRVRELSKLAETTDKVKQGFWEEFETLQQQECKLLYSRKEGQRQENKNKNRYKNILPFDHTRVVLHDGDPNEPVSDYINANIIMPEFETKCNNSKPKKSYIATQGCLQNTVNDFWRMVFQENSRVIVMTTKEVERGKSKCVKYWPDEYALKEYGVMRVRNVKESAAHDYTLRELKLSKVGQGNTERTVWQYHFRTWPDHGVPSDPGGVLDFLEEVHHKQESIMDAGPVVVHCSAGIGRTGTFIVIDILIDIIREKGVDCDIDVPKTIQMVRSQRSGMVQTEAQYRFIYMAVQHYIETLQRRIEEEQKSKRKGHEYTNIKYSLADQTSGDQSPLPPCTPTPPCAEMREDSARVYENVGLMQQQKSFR

[6] = molecular target: Receptor-type tyrosine-protein phosphatase mu (Homo sapiens, UniProt P28827); test: Inhibition of HPTP mu
[7] = molecular target: T4, Receptor-type tyrosine-protein phosphatase eta (Homo sapiens, UniProt Q12913); test: Inhibition of HPTP eta
T4 sequence (Q12913 whole entry): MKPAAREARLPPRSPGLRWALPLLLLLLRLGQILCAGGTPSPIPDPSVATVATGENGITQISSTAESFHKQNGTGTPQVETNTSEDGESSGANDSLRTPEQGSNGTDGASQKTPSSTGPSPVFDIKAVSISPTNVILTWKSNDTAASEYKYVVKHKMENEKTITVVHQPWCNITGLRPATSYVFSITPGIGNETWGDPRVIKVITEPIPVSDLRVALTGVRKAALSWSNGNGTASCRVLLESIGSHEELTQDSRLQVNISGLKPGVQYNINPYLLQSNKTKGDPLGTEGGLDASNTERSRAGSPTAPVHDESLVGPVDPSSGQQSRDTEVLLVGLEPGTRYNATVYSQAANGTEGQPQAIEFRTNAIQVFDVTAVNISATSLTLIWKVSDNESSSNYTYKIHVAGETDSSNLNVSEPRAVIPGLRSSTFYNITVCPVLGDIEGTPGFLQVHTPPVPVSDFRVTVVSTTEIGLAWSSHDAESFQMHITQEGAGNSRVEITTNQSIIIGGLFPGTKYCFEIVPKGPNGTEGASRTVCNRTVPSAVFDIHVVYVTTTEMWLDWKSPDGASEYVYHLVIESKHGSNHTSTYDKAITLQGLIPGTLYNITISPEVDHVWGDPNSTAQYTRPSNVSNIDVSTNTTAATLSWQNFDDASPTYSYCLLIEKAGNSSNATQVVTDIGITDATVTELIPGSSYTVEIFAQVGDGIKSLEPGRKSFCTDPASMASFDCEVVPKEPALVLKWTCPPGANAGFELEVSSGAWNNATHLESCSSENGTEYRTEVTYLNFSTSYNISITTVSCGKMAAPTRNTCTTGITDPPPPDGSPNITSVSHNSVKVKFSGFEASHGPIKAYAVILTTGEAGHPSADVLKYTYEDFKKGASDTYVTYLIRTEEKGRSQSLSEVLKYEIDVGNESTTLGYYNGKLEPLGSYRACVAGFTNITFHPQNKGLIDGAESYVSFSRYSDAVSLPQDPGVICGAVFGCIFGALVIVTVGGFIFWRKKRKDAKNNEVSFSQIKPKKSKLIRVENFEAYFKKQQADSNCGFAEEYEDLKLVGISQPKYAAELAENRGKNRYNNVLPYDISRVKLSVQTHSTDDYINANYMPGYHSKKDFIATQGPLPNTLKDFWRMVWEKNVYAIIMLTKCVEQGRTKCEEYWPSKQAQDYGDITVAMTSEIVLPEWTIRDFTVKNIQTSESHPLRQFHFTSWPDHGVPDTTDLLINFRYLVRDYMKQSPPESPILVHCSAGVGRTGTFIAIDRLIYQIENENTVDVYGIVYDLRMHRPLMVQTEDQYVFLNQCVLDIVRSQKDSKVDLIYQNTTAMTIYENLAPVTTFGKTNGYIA

[8] = molecular target: Receptor-type tyrosine-protein phosphatase gamma (Homo sapiens, UniProt P23470); test: Inhibition of PTP gamma
Receptor-type tyrosine-protein phosphatase gamma, sequence (P23470 whole entry): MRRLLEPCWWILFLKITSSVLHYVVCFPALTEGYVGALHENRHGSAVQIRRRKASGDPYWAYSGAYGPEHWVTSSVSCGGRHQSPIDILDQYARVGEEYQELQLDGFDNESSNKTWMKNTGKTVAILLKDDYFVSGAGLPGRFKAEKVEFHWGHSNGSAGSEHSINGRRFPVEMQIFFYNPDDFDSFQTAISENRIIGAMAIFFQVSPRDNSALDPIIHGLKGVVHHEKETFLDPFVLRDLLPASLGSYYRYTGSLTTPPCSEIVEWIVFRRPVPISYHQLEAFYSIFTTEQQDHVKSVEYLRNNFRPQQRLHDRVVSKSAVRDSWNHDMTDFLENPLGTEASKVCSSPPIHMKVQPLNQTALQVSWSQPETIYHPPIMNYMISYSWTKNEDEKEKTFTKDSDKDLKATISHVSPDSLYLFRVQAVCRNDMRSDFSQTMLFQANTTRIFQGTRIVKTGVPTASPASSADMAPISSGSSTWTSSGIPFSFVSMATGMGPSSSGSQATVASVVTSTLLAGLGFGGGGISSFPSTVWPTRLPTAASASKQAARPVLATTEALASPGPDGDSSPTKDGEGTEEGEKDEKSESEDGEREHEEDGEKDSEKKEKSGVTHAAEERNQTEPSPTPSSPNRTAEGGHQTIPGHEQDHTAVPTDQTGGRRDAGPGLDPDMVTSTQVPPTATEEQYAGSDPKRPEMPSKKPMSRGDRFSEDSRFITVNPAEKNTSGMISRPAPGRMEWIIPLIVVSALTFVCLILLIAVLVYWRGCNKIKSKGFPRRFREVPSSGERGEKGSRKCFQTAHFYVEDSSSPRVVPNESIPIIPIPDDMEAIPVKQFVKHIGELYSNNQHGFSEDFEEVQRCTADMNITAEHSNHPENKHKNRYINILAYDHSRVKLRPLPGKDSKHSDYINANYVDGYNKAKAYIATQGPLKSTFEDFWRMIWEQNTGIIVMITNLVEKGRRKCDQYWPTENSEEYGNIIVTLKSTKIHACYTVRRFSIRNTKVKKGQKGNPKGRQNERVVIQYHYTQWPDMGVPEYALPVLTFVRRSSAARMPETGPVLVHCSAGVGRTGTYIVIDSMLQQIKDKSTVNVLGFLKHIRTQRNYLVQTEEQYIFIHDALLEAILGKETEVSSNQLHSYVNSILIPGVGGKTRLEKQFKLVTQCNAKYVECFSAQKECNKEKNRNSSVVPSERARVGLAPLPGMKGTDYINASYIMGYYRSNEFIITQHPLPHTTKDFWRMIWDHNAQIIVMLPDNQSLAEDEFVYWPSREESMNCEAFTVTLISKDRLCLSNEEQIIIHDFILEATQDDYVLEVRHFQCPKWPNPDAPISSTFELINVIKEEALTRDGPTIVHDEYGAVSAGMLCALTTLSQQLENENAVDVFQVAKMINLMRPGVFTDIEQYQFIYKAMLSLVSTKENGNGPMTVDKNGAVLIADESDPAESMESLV

[9] = molecular target: T1, Tyrosine-protein phosphatase non-receptor type 2; test: Inhibition of TC-PTP38
[10] = molecular target: Receptor-type tyrosine-protein phosphatase epsilon (Homo sapiens, UniProt P23469); test: Inhibition of HPTP epsilon
Receptor-type tyrosine-protein phosphatase epsilon, sequence (P23469 whole entry): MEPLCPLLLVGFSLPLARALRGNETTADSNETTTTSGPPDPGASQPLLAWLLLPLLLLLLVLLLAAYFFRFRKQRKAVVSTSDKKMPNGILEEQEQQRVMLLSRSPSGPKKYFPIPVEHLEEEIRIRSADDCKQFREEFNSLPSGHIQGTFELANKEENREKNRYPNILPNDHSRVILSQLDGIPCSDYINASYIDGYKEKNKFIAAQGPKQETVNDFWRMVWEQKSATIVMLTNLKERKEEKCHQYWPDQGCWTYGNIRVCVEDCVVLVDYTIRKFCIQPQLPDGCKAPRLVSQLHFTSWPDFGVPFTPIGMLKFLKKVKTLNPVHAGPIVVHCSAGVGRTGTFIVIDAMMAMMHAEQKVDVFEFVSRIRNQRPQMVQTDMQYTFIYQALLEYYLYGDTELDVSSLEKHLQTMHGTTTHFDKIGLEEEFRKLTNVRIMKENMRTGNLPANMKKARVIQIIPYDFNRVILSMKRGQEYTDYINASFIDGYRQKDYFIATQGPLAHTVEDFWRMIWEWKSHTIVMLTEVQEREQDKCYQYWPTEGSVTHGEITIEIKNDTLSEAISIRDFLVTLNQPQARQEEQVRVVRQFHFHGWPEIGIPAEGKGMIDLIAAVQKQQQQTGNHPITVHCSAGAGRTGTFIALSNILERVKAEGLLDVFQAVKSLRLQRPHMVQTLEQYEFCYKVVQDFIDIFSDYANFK

Q: `CNC(=O)[C@@H]1Cc2ccc(NS(=O)(=O)O)cc2CN1C(=O)CCc1cccc(NS(=O)(=O)O)c1` was tested. Which IC50 [1] did it give?
A: 9.4 µM

Q: What about the IC50 [2] of the same compound?
A: 3.1 µM

Q: What about the IC50 [3] of the same compound?
A: 20.7 µM

Q: What about the IC50 [4] of the same compound?
A: 203 µM

Q: And the IC50 [5]?
A: > 500 µM

Q: And the IC50 [6]?
A: > 500 µM

Q: And the IC50 [7]?
A: 150 µM

Q: And the IC50 [8]?
A: > 500 µM

Q: What about the IC50 [9] of the same compound?
A: 9.9 µM

Q: What about the IC50 [10] of the same compound?
A: > 500 µM

Reference: ChEMBL document CHEMBL1139672, “1,2,3,4-Tetrahydroisoquinolinyl sulfamic acids as phosphatase PTP1B inhibitors” (Bioorg Med Chem Lett, 2006)
